Entries after “also recorded” stand apart in the source; their conditions may differ.
Columns and labels:
PC3 prostate cells = assay: PC3 prostate cell viability with taxol; format: cell-based; conditions: taxol 100 nM, cromolyn 10 μM, 48 hours
Method: PC3 prostate cells were plated and treated with taxol (100 nM) either in the presence or absence of cromolyn (10 μM) for 48 hours. Cell viability was analyzed after 48 hours. *, P<0.05.

MPan-96 cells = assay: MPanc-96 cell invasiveness; format: cell-based, Human
Panc-1 cells [1] = assay: Panc-1 cell proliferation (MTS); format: cell-based
Method: Panc-1 pancreatic adenocarcinoma cells (1.0×10^3 cells/well) were cultured in the presence or absence of S100P (100 nM) and with or without cromolyn (100 μM), and cell proliferation was analyzed at 24, 48, and 72 hours. Means and 95% confidence intervals of three independent experiments performed in triplicate are shown. *, P=0.001, S100P alone versus S100P+cromolyn.
Panc-1 cells were plated at 1.0×10^3 cells/well and treated with platelet-derived growth factor (10 ng/mL) with or without cromolyn (100 μM), and cell proliferation was analyzed after 48 hours. Means and 95% confidence intervals of three independent experiments performed in triplicate are shown. *, P=0.004 PDGF and P=0.022 cromolyn+PDGF versus control.
Growth of Panc-1 and BxPC3 pancreatic adenocarcinoma cells was analyzed using MTS reagent (Promega, Madison, Wis.) according to the manufacturer's directions. Purified S100P (100 nM final concentration) with or without cromolyn (100 μM final concentration) was added to Panc-1 cells. Only cromolyn (0-100 μM) was added to BxPC-3 cells, which express endogenous S100P. For both cell models, 1.0×10^3 cells/well were plated in 96-well culture dishes. Cells were treated with S100P, PDGF, or cromolyn, or a combination, followed immediately by treatment with either S100P or PDGF. MTS (20 μL per well) was added to cells at various times, and the mixture was incubated for 1 hour at 37° C. Samples were then read at 490 nm (as O.D. units) on a uQuant-Microplate Spectrophotometer (Bio-Tek Services Inc., Richmond, Va.). The assay was performed three times in triplicate.

SW480 cells = assay: SW480 colon cancer cell invasion (matrigel, transwell); format: cell-based; conditions: cromolyn 10 μM and 100 μM, 24 hours
Method: SW480 cells were plated on top of a layer of matrigel in a Boyden type chamber (transwell). Media containing 5% FBS was placed in the lower well and the cells were allowed to invade the matrigel layer for 24 hours in the presence of different concentrations of cromolyn.

S100P binding with RAGE = molecular target: T1, S100P binding with RAGE (Homo sapiens, UniProt P25815); assay: ELISA of S100P binding to RAGE (sRAGE coated plate)
T1 construct: full-length human S100P cDNA (NM_005980) was cloned into the pTrcHis2 vector; His; made in house; host or cells: bacteria (S100P)
T1 sequence (P25815 1-95): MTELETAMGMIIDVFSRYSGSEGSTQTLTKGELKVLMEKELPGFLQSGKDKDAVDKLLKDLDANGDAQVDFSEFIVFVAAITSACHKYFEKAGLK
Method: After removing un-bound S100P by washing with detergent, the bound S100P and RAGE complex was quantified by adding HRP labeled antibody against S100P. *, P=0.04 C5 1 μM versus cromolyn 5 μM. Two-tailed two-sample (unpaired) Student's t-tests were used to determine P values.
The plate was washed and the amount of bound S100P was quantitated using anti-S100P antibody.
The binding of S100P to RAGE was determined using an ELISA assay. sRAGE was attached to the dish and recombinant S100P (50 ng) was added with or without the indicated concentrations of cromolyn analogs. The plate was washed and the amount of bound S100P was quantitated using anti-S100P antibody.

Panc-1 cells [2] = assay: Panc-1 matrigel invasion assay; format: cell-based
Method: FIGS. 2A-2D show the effect of cromolyn on pancreatic cancer cell invasion. Panc-1 and BxPC-3 cells were plated in Bio-coat matrigel and control chambers and cultured in serum-free culture media. After 24 hours non-invaded cells in the upper chamber were removed, and cells that invaded onto the lower surface of the membrane were counted from five adjacent fields. […] Data are expressed as the percent invasion through the matrigel matrix and membrane relative to migration through the control membrane. Means and 95% confidence intervals from three independent experiments performed in triplicate are shown. Two-tailed two-sample (unpaired) Student's t-tests were used to determine P values.
Panc-1 and BxPC-3 cells were seeded in BIOCOAT matrigel invasion chambers and in control chambers without matrigel (Becton-Dickinson, Bedford, Mass.) according to the manufacturer's protocol. Panc-1 cells were seeded with S100P (100 nM) with or without cromolyn (100 μM), and BxPC-3 cells were seeded with or without cromolyn (1-100 μM). Briefly, 2.0×10^5 cells in 300 μL top solution (serum-free media) were added to each chamber and allowed to invade matrigel for 24 hours at 37° C. in a 5% CO2 atmosphere. The non-invading cells on the upper surface of membrane were removed from the chambers with a cotton swab, and the invading cells on the lower surface of the membrane were fixed and stained using a Diff-Quick stain kit (Becton Dickinson, Bedford, Mass.). After two washes with water, the chambers were allowed to air dry. The numbers of invading cells in five adjacent microscope fields per membrane were counted at 20× magnification to obtain the average number of cells per field. Data are expressed as the percent invasion through the matrigel matrix and membrane relative to the migration through the control membrane. The assays were performed three times.

NFκB activity = assay: S100P stimulated NFκB luciferase reporter in MPanc-96 cells; format: cell-based, Human; conditions: S100P 100 nM, compound 1 μM, 5 hours
Method: MPanc-96 pancreatic cancer cell lines stably expressing an NFκB luciferase reporter were examined for the effects of S100P, cromolyn and C5. Cells were plated at 5.0×10^3 cells/well, treated for 5 hours with 100 nM of S100P, with or without cromolyn and C5 (1 μM), and activity of a luciferase gene driven by the NFkB promoter was analyzed. P=0.05 C5 versus cromolyn. Two-tailed two-sample (unpaired) Student's t-tests were used to determine P values.

## O=C(O)c1cc(=O)c2c(OCC(O)COc3cccc4oc(C(=O)O)cc(=O)c34)cccc2o1 [cromolyn, disodium 1,3-bis[(2′-carboxylatochromon-5′-yl)oxy]-2-hydroxypropane]
PC3 prostate cells
  cell killing effect of taxol on prostate cancer cells: increased the cell killing effect of taxol
MPan-96 cells
  basal cell invasiveness: inhibited
Panc-1 cells [1]; Panc-1
  serum stimulated cell proliferation: did not influence
Panc-1 cells [1]; Panc-1, no S100P
  cell proliferation, cromolyn treatment alone: no effect
Panc-1 cells [1]; Panc-1, PDGF 10 ng/mL with cromolyn 100 μM, 48 hours
  PDGF stimulated cell growth: nor did it inhibit growth stimulation caused by PDGF
Panc-1 cells [1]; Panc-1, S100P 100 nM + cromolyn 100 μM
  cell proliferation, mean: 0.56 MTS units
Panc-1 cells [1]; Panc-1, S100P 100 nM, cromolyn 100 μM
  cell proliferation, difference S100P versus S100P+cromolyn: 0.37 MTS units
SW480 cells
  invasiveness of SW480 cells: reduced the invasiveness
S100P binding with RAGE
  blocking of the interaction / binding of S100P with RAGE: blocked; also recorded: able to block
S100P binding with RAGE; FIG. 7
  concentration achieving the same level of S100P inhibition: 5 µM
Panc-1 cells [2]; Panc-1, no S100P
  basal cell invasion: did not reduce
Panc-1 cells [2]; Panc-1, S100P 100 nM + cromolyn 100 μM, 24 hours
  cells invaded, mean: 9.4%
Panc-1 cells [2]; Panc-1, S100P 100 nM, cromolyn 100 μM, 24 hours
  cells invaded, difference S100P versus S100P+cromolyn: 48.6%
NFκB activity
  NFκB activity in pancreatic cancer cells in vitro: inhibit
